Literature values, collected in patent publication US20090082738A1, “Natural Anti-Inflammatory Agents for Reducing Pain” (priority 2007, published 2009).

How the values were obtained:
[1] = tested on: cyclooxygenase (COX)
[2] = tested on: moderate or severe knee arthritis population; settings: 1500 mg of glucosamine

SMILES | inhibition of cyclooxygenase (COX) [1] | clinical efficacy compared with Celebrex [2]
C/C=C(/C=O)[C@@H](CC=O)CC(=O)OCCc1ccc(O)cc1 [Oleocanthal] | non-selective inhibitor of cyclooxygenase (COX) | 
N[C@H]1C(O)O[C@H](CO)[C@@H](O)[C@@H]1O (some centres unmarked) [glucosamine] |  | superior to the prescription medication Celebrex
